{"source": "patent US4465674A", "about": "“Azahomoerythromycin D derivative and intermediates therefor” (Pfizer Inc., priority 1983, dated 1984)", "type_in_all_cases": "cell-based", "key": {"Strep. faec.": {"tested_on": "Strep. faec.", "assay": "in vitro MIC in BHI broth, Strep. faec.", "text": "(§1) Generally twelve 2 fold dilutions of the test compound are employed, with initial concentration of the test drug being in the range of 50 to 200 mcg./ml.\n(§2) The susceptibility (MIC) of the test organism is accepted as the lowest concentration of compound capable of producing complete inhibition of growth as judged by the naked eye."}, "Ent. cloac.": {"tested_on": "Ent. cloac.", "assay": "in vitro MIC in BHI broth, Ent. cloac.", "text": "as §1, §2"}, "Prov. strua.": {"tested_on": "Prov. strua.", "assay": "in vitro MIC in BHI broth, Prov. strua.", "text": "as §1, §2"}, "Staph. epi": {"tested_on": "Staph. epi", "assay": "in vitro MIC in BHI broth, Staph. epi", "text": "as §1, §2"}, "Kleb. oxy.": {"tested_on": "Kleb. oxy.", "assay": "in vitro MIC in BHI broth, Kleb. oxy.", "text": "as §1, §2"}, "Staph. aur.": {"tested_on": "Staph. aur.", "assay": "in vitro MIC in BHI broth, Staph. aur.", "text": "as §1, §2"}, "Ent. aerog.": {"tested_on": "Ent. aerog.", "assay": "in vitro MIC in BHI broth, Ent. aerog."}, "Serr. mar.": {"tested_on": "Serr. mar.", "assay": "in vitro MIC in BHI broth, Serr. mar.", "text": "as §1, §2"}, "H. influ.": {"tested_on": "H. influ.", "assay": "in vitro MIC in BHI broth, H. influ.", "text": "as §1, §2"}, "Past. mult.": {"tested_on": "Past. mult.", "assay": "in vitro MIC in BHI broth, Past. mult.", "text": "as §1, §2"}, "Neiss. sic.": {"tested_on": "Neiss. sic.", "assay": "in vitro MIC in BHI broth, Neiss. sic.", "text": "as §1, §2"}, "E. Coli": {"tested_on": "E. Coli", "assay": "in vitro MIC in BHI broth, E. Coli", "conditions": "Escherichia coli"}, "Kleb. pn.": {"tested_on": "Kleb. pn.", "assay": "in vitro MIC in BHI broth, Kleb. pn."}, "Strep. pyog.": {"tested_on": "Strep. pyog.", "assay": "in vitro MIC in BHI broth, Strep. pyog.", "text": "as §1, §2"}}, "note": "Read-outs that look alike come from different tables or passages of the source."}
{"compound": "CC[C@H]1OC(=O)[C@H](C)[C@@H](O[C@H]2C[C@@](C)(OC)[C@@H](O)[C@H](C)O2)[C@H](C)[C@@H](O[C@@H]2O[C@H](C)C[C@H](N(C)C)[C@H]2O)[C@](C)(O)C[C@@H](C)C(=O)[C@H](C)[C@@H](O)[C@]1(C)O", "note": "[(1), Erythromycin A]", "values": [{"measurement": "MIC", "setting": "Strep. faec.; Strep. faec. 006, BHI broth, read-out: MIC", "value": 0.39, "unit": "µg/mL"}, {"measurement": "MIC", "setting": "Ent. cloac.; Ent. cloac. 009, BHI broth, read-out: MIC", "value": "> 50", "unit": "µg/mL"}, {"measurement": "MIC", "setting": "Prov. strua.; Prov. strua. 013, BHI broth, read-out: MIC", "value": "> 50", "unit": "µg/mL"}, {"measurement": "MIC", "setting": "Staph. epi; Staph. epi 111, BHI broth, read-out: MIC", "value": 0.05, "unit": "µg/mL"}, {"measurement": "MIC", "setting": "Kleb. oxy.; Kleb. oxy. 024, BHI broth, read-out: MIC", "value": "> 50", "unit": "µg/mL"}, {"measurement": "MIC", "setting": "Staph. aur.; Staph. aur. 005, read-out: MIC", "value": 0.05, "unit": "µg/mL"}, {"measurement": "MIC", "setting": "Staph. aur.; Staph. aur. 052, read-out: MIC", "value": 0.1, "unit": "µg/mL"}, {"measurement": "MIC", "setting": "Staph. aur.; Staph. aur. 400", "value": 6.25, "unit": "µg/mL"}, {"measurement": "MIC", "setting": "Ent. aerog.; Ent. aerog. 040, BHI broth, read-out: MIC", "value": "> 50", "unit": "µg/mL"}, {"measurement": "MIC", "setting": "Serr. mar.; Serr. mar. 017, BHI broth, read-out: MIC", "value": "> 50", "unit": "µg/mL"}, {"measurement": "MIC", "setting": "H. influ.; H. influ. 012", "value": 3.12, "unit": "µg/mL"}, {"measurement": "MIC", "setting": "H. influ.; H. influ. 036", "value": 3.12, "unit": "µg/mL"}, {"measurement": "MIC", "setting": "H. influ.; H. influ. 038", "value": 1.56, "unit": "µg/mL"}, {"measurement": "MIC", "setting": "H. influ.; H. influ. 042", "value": 3.12, "unit": "µg/mL"}, {"measurement": "MIC", "setting": "H. influ.; H. influ. 051", "value": 3.12, "unit": "µg/mL"}, {"measurement": "MIC", "setting": "H. influ.; H. influ. 073", "value": 3.12, "unit": "µg/mL"}, {"measurement": "MIC", "setting": "H. influ.; H. influ. 078", "value": 1.56, "unit": "µg/mL"}, {"measurement": "MIC", "setting": "H. influ.; H. influ. 081", "value": 3.12, "unit": "µg/mL"}, {"measurement": "MIC", "setting": "Past. mult.; Past. mult. 001, BHI broth, read-out: MIC", "value": 0.78, "unit": "µg/mL"}, {"measurement": "MIC", "setting": "Neiss. sic.", "value": 3.12, "unit": "µg/mL"}, {"measurement": "MIC", "setting": "E. Coli; E. Coli 125", "value": "> 50", "unit": "µg/mL"}, {"measurement": "MIC", "setting": "E. Coli; E. Coli 129", "value": "> 50", "unit": "µg/mL"}, {"measurement": "MIC", "setting": "E. Coli; E. Coli 266", "value": "> 50", "unit": "µg/mL"}, {"measurement": "MIC", "setting": "E. Coli; E. Coli 470", "value": 1.56, "unit": "µg/mL"}, {"measurement": "MIC", "setting": "Kleb. pn.; Kleb. pn. 009, BHI broth, read-out: MIC", "value": "> 50", "unit": "µg/mL"}, {"measurement": "MIC", "setting": "Kleb. pn.; Kleb. pn. 031, BHI broth", "value": "(a) (greater than 50)"}, {"measurement": "MIC", "setting": "Strep. pyog.; Strep. pyog. 203, BHI broth, read-out: MIC", "value": 0.025, "unit": "µg/mL"}]}
{"compound": "CC[C@H]1OC(=O)[C@H](C)[C@@H](O[C@H]2C[C@@](C)(O)[C@@H](O)[C@H](C)O2)[C@H](C)[C@@H](O[C@@H]2O[C@H](C)C[C@H](N(C)C)[C@H]2O)[C@](C)(O)C[C@@H](C)C(=O)[C@H](C)[C@@H](O)[C@H]1C", "note": "[(2), Erythromycin D]", "values": [{"measurement": "MIC", "setting": "Strep. faec.", "value": 0.39, "unit": "µg/mL"}, {"measurement": "MIC", "setting": "Ent. cloac.", "value": "> 50", "unit": "µg/mL"}, {"measurement": "MIC", "setting": "Prov. strua.", "value": "> 50", "unit": "µg/mL"}, {"measurement": "MIC", "setting": "Staph. epi", "value": 0.2, "unit": "µg/mL"}, {"measurement": "MIC", "setting": "Kleb. oxy.", "value": "> 50", "unit": "µg/mL"}, {"measurement": "MIC", "setting": "Staph. aur.; Staph. aur. 005", "value": 0.39, "unit": "µg/mL"}, {"measurement": "MIC", "setting": "Staph. aur.; Staph. aur. 052", "value": 0.39, "unit": "µg/mL"}, {"measurement": "MIC", "setting": "Staph. aur.; Staph. aur. 400", "value": 6.25, "unit": "µg/mL"}, {"measurement": "MIC", "setting": "Ent. aerog.", "value": "> 50", "unit": "µg/mL"}, {"measurement": "MIC", "setting": "Serr. mar.", "value": "> 50", "unit": "µg/mL"}, {"measurement": "MIC", "setting": "H. influ.; H. influ. 012", "value": 25, "unit": "µg/mL"}, {"measurement": "MIC", "setting": "H. influ.; H. influ. 036", "value": 50, "unit": "µg/mL"}, {"measurement": "MIC", "setting": "H. influ.; H. influ. 038", "value": 25, "unit": "µg/mL"}, {"measurement": "MIC", "setting": "H. influ.; H. influ. 042", "value": 25, "unit": "µg/mL"}, {"measurement": "MIC", "setting": "H. influ.; H. influ. 051", "value": 12.5, "unit": "µg/mL"}, {"measurement": "MIC", "setting": "H. influ.; H. influ. 073", "value": 50, "unit": "µg/mL"}, {"measurement": "MIC", "setting": "H. influ.; H. influ. 078", "value": 12.5, "unit": "µg/mL"}, {"measurement": "MIC", "setting": "H. influ.; H. influ. 081", "value": 25, "unit": "µg/mL"}, {"measurement": "MIC", "setting": "Past. mult.", "value": 6.25, "unit": "µg/mL"}, {"measurement": "MIC", "setting": "Neiss. sic.", "value": 6.25, "unit": "µg/mL"}, {"measurement": "MIC", "setting": "E. Coli; E. Coli 125", "value": "> 50", "unit": "µg/mL"}, {"measurement": "MIC", "setting": "E. Coli; E. Coli 129", "value": "> 50", "unit": "µg/mL"}, {"measurement": "MIC", "setting": "E. Coli; E. Coli 266", "value": "> 50", "unit": "µg/mL"}, {"measurement": "MIC", "setting": "E. Coli; E. Coli 470", "value": 3.12, "unit": "µg/mL"}, {"measurement": "MIC", "setting": "Kleb. pn.", "value": "> 50", "unit": "µg/mL"}, {"measurement": "MIC", "setting": "Kleb. pn.; Kleb. pn. 031, BHI broth", "value": "(a) (greater than 50)"}, {"measurement": "MIC", "setting": "Strep. pyog.", "value": 0.025, "unit": "µg/mL"}]}
